Measurements as given in patent US4640910A (Abbott Laboratories, priority 1985, dated 1987).
Converted amounts (≈) assume the structure as drawn. Read-outs that look alike come from different tables or passages of the source.

Columns and labels:
Strep. pneumoniae = assay: Extended mouse protection study; conditions: oral
Strep. pyogenes EES61 = assay: Antimicrobial spectrum, agar dilution MIC; type: cell-based; conditions: Streptococcus pyogenes, BHI agar, 35°-37° C., 20-24 hours
Staph. epidermidis 3519 = assay: Antimicrobial spectrum, agar dilution MIC; type: cell-based; conditions: Staphylococcus epidermidis, BHI agar, 35°-37° C., 20-24 hours
E. coli H560 = assay: Antimicrobial spectrum, agar dilution MIC; type: cell-based; conditions: Escherichia coli, BHI agar, 35°-37° C., 20-24 hours
Strep. pyogenes = assay: Extended mouse protection study; conditions: oral
Staph. aureus = assay: Extended mouse protection study; conditions: oral
E. coli DC-2 = assay: Antimicrobial spectrum, agar dilution MIC; type: cell-based; conditions: Escherichia coli, DC2, BHI agar, 35°-37° C., 20-24 hours
[1] = Stability and release of drug from prodrug in aqueous buffers pH 2 to 12 (dissolution apparatus, HPLC); type: physicochemical; conditions: for conversion to active drug: 37° C.
Description: (§1) Samples of 2'-trimethylsilylerythromycin A and 2'-trimethylsilyl-6-O-methylerythromycin A were dissolved in 10-50 ml dimethyl sulfoxide or acetonitrile to give a solution containing 15-75 mg/ml. An aliquot containing 75 mg of prodrug was added to aqueous buffers ranging in pH from 2 to 12 to give a final volume equal to 500 ml. The buffered mixtures were stirred at 37° C. for at least 90 minutes. A standard dissolution test apparatus (Vanderkamp 600, Van-Kel Industries, Inc., 36 Meridian Road, Edisoin, N.J. 08820) was used to provide temperature and stirring rate control.
(§2) Aliquots were taken at 15, 30, 45, 60, 90, 120, 180, 240 and 360 minutes for analysis. Each sample was mixed with an internal standard, adjusted rapidly to pH 9 with 1M tricine buffer and extracted immediately with ethyl acetate. The organic extracts were evaporated and redissolved in a solution of 3% tetrahydrofuran in heptane. Samples of these solutions were injected using an autosampler (WISP 71)B, Waters Chromatography, Division of Millipore, 34 Maple Street, Milford, Mass. 01757). The prodrugs and drugs were separated by high performance liquid chromatography, detected at 225 nm using a spectrophotometer (Spectroflow 773 Absorbence Detector, Kratos Analytical Instruments), and were quantified with a digital integrator.

[2] = system: Acinetobacter sp. CMX 669; assay: Antimicrobial spectrum, agar dilution MIC; type: cell-based; conditions: SP.CMX669, BHI agar, 35°-37° C., 20-24 hours
E. coli SS = assay: Antimicrobial spectrum, agar dilution MIC; type: cell-based; conditions: Escherichia coli, BHI agar, 35°-37° C., 20-24 hours
Strep. bovis A5169 = assay: Antimicrobial spectrum, agar dilution MIC; type: cell-based; conditions: Streptococcus equinus, BHI agar, 35°-37° C., 20-24 hours
[3] = system: Lactobacillus casei ATCC 7469; assay: Antimicrobial spectrum, agar dilution MIC; type: cell-based; conditions: Lacticaseibacillus casei, ATCC7469; Lactobacillus casei ATCC 7469; BHI agar, 35°-37° C., 20-24 hours; read-out: MIC
Ps. aeruginosa K799/61 = assay: Antimicrobial spectrum, agar dilution MIC; type: cell-based; conditions: Pseudomonas aeruginosa, BHI agar, 35°-37° C., 20-24 hours
[4] = system: Enterobact. aerogenes ATCC 13048; assay: Antimicrobial spectrum, agar dilution MIC; type: cell-based
Micrococcus luteus 4698 = assay: Antimicrobial spectrum, agar dilution MIC; type: cell-based; conditions: BHI agar, 35°-37° C., 20-24 hours
Strep. faecium ATCC 8043 = assay: Antimicrobial spectrum, agar dilution MIC; type: cell-based; conditions: Enterococcus faecium, ATCC8043, BHI agar, 35°-37° C., 20-24 hours
Ps. aeruginosa K799/WT = assay: Antimicrobial spectrum, agar dilution MIC; type: cell-based; conditions: Pseudomonas aeruginosa, BHI agar, 35°-37° C., 20-24 hours
[5] = Solubility of prodrug in aqueous buffers; type: physicochemical
Description: as §1, §2

Staph. aureus ATCC 6538P = assay: Antimicrobial spectrum, agar dilution MIC; type: cell-based; conditions: Staphylococcus aureus, ATCC6538P, BHI agar, 35°-37° C., 20-24 hours
Staph. aureus A 5177 = assay: Antimicrobial spectrum, agar dilution MIC; type: cell-based; conditions: Staphylococcus aureus, A5177
[6] = system: Providencia stuartii CMX 640; assay: Antimicrobial spectrum, agar dilution MIC; type: cell-based; conditions: Providencia stuartii, CMX640
Ps. cepacia 2961 = assay: Antimicrobial spectrum, agar dilution MIC; type: cell-based; conditions: Burkholderia cepacia, 2961
Micrococcus luteus 9341 = assay: Antimicrobial spectrum, agar dilution MIC; type: cell-based; conditions: Micrococcus luteus 9341; BHI agar, 35°-37° C., 20-24 hours; read-out: MIC
E. coli JUHL = assay: Antimicrobial spectrum, agar dilution MIC; type: cell-based; conditions: Escherichia coli, BHI agar, 35°-37° C., 20-24 hours
[7] = system: Strep. agalactiae CMX 508; assay: Antimicrobial spectrum, agar dilution MIC; type: cell-based; conditions: Streptococcus agalactiae, CMX508, BHI agar, 35°-37° C., 20-24 hours
Strep. pyogenes 930 = assay: Antimicrobial spectrum, agar dilution MIC; type: cell-based; conditions: Streptococcus pyogenes, BHI agar, 35°-37° C., 20-24 hours
[8] = system: Staph. epidermidis 3519 RARI; assay: Antimicrobial spectrum, agar dilution MIC; type: cell-based; conditions: Staphylococcus epidermidis
Ps. aeruginosa A5007 = assay: Antimicrobial spectrum, agar dilution MIC; type: cell-based; conditions: Pseudomonas aeruginosa, BHI agar, 35°-37° C., 20-24 hours
Staph. aureus CMX 686B = assay: Antimicrobial spectrum, agar dilution MIC; type: cell-based; conditions: Staphylococcus aureus, CMX686B, BHI agar, 35°-37° C., 20-24 hours
Ps. aeruginosa BMH10 = assay: Antimicrobial spectrum, agar dilution MIC; type: cell-based; conditions: Pseudomonas aeruginosa, BMH10
[9] = system: Klebsiella pneumoniae 8045; assay: Antimicrobial spectrum, agar dilution MIC; type: cell-based; conditions: BHI agar, 35°-37° C., 20-24 hours
[10] = carboxymethylcellulose with milk (reduces gastric acid secretion)
[11] = phosphate buffer solution with milk (reduces gastric acid secretion)

For `CC[C@H]1OC(=O)[C@H](C)[C@@H](O[C@H]2C[C@@](C)(OC)[C@@H](O)[C@H](C)O2)[C@H](C)[C@@H](O[C@@H]2O[C@H](C)C[C@H](N(C)C)[C@H]2O[Si](C)(C)C)[C@](C)(OC)C[C@@H](C)C(=O)[C@H](C)[C@@H](O)[C@]1(C)O` [Example 3, 2'-O-trimethylsilyl-6-O-methyl-Erythromycin A], the ED50 (Strep. pneumoniae; carboxymethylcellulose) was 7.9 mg/kg/day, the ED50 (Strep. pneumoniae; [10]) was 7.3 mg/kg/day and the ED50 (Strep. pneumoniae; phosphate buffer solution) was 9.3 mg/kg/day. It also gave an ED50 (Strep. pneumoniae; [11]) of 10.9 mg/kg/day, an MIC (Strep. pyogenes EES61) of 0.05 µg/mL (≈ 0.061 µM) and an MIC (Staph. epidermidis 3519) of 0.78 µg/mL (≈ 0.951 µM). It also gave an MIC (E. coli H560) of 100 µg/mL (≈ 122 µM), an ED50 (Strep. pyogenes; [10]) of 7.8 mg/kg/day and an ED50 (Strep. pyogenes; phosphate buffer solution) of 12.7 mg/kg/day. It also gave an ED50 (Strep. pyogenes; [11]) of 14.1 mg/kg/day, an ED50 (Staph. aureus; carboxymethylcellulose) of 34.9 mg/kg/day and an ED50 (Staph. aureus; phosphate buffer solution) of 157.9 mg/kg/day. For the same compound, the MIC (E. coli DC-2) was 100 µg/mL (≈ 122 µM), the “conversion to active drug” value ([1]; acid pH) was “converted to the active drug 6-O-methylerythromycin A” and the release rates ([1]; pH 3 and 4, 37° C.) was “both dissolution-rate limited release and also release from the initially dissolved material”. The release rates ([1]; pH 5, 6 and 7, 37° C.) was “dissolution-rate limited release”, the decomposition ([1]; pH 7, owing to solubility properties) was “severely restrict its decomposition” and the “conversion to active drug” value ([1]; pH 8 or above) was “Very little or no conversion”. The MIC [2] was 50 µg/mL (≈ 61 µM), the MIC (E. coli SS) was 0.39 µg/mL (≈ 0.476 µM) and the MIC (Strep. bovis A5169) was 0.1 µg/mL (≈ 0.122 µM). The MIC [3] was 0.1 µg/mL (≈ 0.122 µM), the MIC (Ps. aeruginosa K799/61) was 25 µg/mL (≈ 30.5 µM) and the MIC [4] was 100 µg/mL (≈ 122 µM). The MIC (Micrococcus luteus 4698) was 0.39 µg/mL (≈ 0.476 µM), the MIC (Strep. faecium ATCC 8043) was 0.2 µg/mL (≈ 0.244 µM) and the MIC (Ps. aeruginosa K799/WT) was 100 µg/mL (≈ 122 µM). For the same compound, the solubility ([5]; aqueous buffer, pH 2, completely soluble, read-out: solubility) was at least 150 µg/mL, the solubility ([5]; neutral or alkaline pH) was “little or no solubility” and the MIC (Staph. aureus ATCC 6538P) was 0.78 µg/mL (≈ 0.951 µM). The MIC (Staph. aureus A 5177) was 3.1 µg/mL (≈ 3.78 µM), the MIC [6] was 100 µg/mL (≈ 122 µM) and the MIC (Ps. cepacia 2961) was 100 µg/mL (≈ 122 µM). It also gave an MIC (Micrococcus luteus 9341) of 0.1 µg/mL (≈ 0.122 µM), an MIC (E. coli JUHL) of 100 µg/mL (≈ 122 µM) and an MIC [7] of 0.1 µg/mL (≈ 0.122 µM). The MIC (Strep. pyogenes 930) was 100 µg/mL (≈ 122 µM), the MIC [8] was 0.39 µg/mL (≈ 0.476 µM) and the MIC (Ps. aeruginosa A5007) was 100 µg/mL (≈ 122 µM). For the same compound, the MIC (Staph. aureus CMX 686B) was 0.78 µg/mL (≈ 0.951 µM), the MIC (Ps. aeruginosa BMH10) was 100 µg/mL (≈ 122 µM) and the MIC [9] was 100 µg/mL (≈ 122 µM).
